“And” between values parts separate entries of the source, which are not always exact repeats. Equal entries are not always repeated. Inconclusive results and toxic doses are left out.
System: P388 leukemia ip, CD2F1 mice, survival T/C
Experiment: NCI In Vivo Anticancer Drug Screen. Data for tumor model P388 Leukemia (intraperitoneal) in CD2F1 (CDF1) mice
Settings: endpoint: median survival time, higher = longer survival
Method in brief: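 Mice carrying the transplanted tumor received test compound or vehicle. Survival was recorded in each group, and the value is the treated-group measurement divided by that of the vehicle-treated control group.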

[1] = dose: 50.0 mg/kg/injection, schedule: Q01DX009 (ip), vehicle: saline with Tween-80
[2] = dose: 100.0 mg/kg/injection, schedule: Q01DX009 (ip), vehicle: saline with Tween-80
[3] = dose: 200.0 mg/kg/injection, schedule: Q01DX009 (ip), vehicle: saline with Tween-80
[4] = dose: 50.0 mg/kg/injection, schedule: Q01DX001 (ip), vehicle: saline with Tween-80
[5] = dose: 100.0 mg/kg/injection, schedule: Q01DX001 (ip), vehicle: saline with Tween-80
[6] = dose: 50.0 mg/kg/injection, schedule: Q01DX005 (ip), vehicle: Klucel (hydroxypropylcellulose) (HPC)
[7] = dose: 100.0 mg/kg/injection, schedule: Q01DX005 (ip), vehicle: Klucel (hydroxypropylcellulose) (HPC)
[8] = dose: 200.0 mg/kg/injection, schedule: Q01DX005 (ip), vehicle: Klucel (hydroxypropylcellulose) (HPC)
[9] = dose: 50.0 mg/kg/injection, schedule: Q01DX005 (ip), vehicle: saline with Tween-80
[10] = dose: 100.0 mg/kg/injection, schedule: Q01DX005 (ip), vehicle: saline with Tween-80
[11] = dose: 200.0 mg/kg/injection, schedule: Q01DX005 (ip), vehicle: saline with Tween-80
[12] = dose: 50.0 mg/kg/injection, schedule: Q01DX009 (ip), vehicle: saline
[13] = dose: 100.0 mg/kg/injection, schedule: Q01DX009 (ip), vehicle: saline
[14] = dose: 400.0 mg/kg/injection, schedule: Q01DX001 (ip), vehicle: saline with Tween-80
[15] = dose: 12.5 mg/kg/injection, schedule: Q01DX009 (ip), vehicle: saline with Tween-80
[16] = dose: 25.0 mg/kg/injection, schedule: Q01DX009 (ip), vehicle: saline with Tween-80
[17] = dose: 60.0 mg/kg/injection, schedule: Q01DX005 (ip), vehicle: Klucel (hydroxypropylcellulose) (HPC)
[18] = dose: 120.0 mg/kg/injection, schedule: Q01DX005 (ip), vehicle: Klucel (hydroxypropylcellulose) (HPC)
[19] = dose: 240.0 mg/kg/injection, schedule: Q01DX005 (ip), vehicle: Klucel (hydroxypropylcellulose) (HPC)

CC(C)C(=NC(C)(C)C)Nc1ccccc1Cl
T/C [1]: 100 % of control | T/C [2]: 92 % of control | T/C [3]: 95 % of control

COc1ccc(O)c(C(c2cc(OC)ccc2O)c2cc(OC)ccc2O)c1
T/C [1]: 115 % of control | T/C [2]: 115 % of control | T/C [3]: 115 % of control

C[C@]12CC[C@H](OC(=O)Cc3ccc(N(CCCl)CCCl)cc3)CC1CC[C@@H]1C2CC[C@]2(C)NC(=O)CCC12 (some centres undefined)
T/C [4]: 195 % of control | T/C [5]: 243 % of control and 294 % of control

CNC(=O)OCc1c(COC(=O)NC)c(-c2cccc(F)c2F)n2c1CCC2
T/C (dose: 12.5 mg/kg/injection, schedule: Q01DX009 (ip), vehicle: distilled water + Tween-80): 171 % of control | T/C (dose: 25.0 mg/kg/injection, schedule: Q01DX009 (ip), vehicle: distilled water + Tween-80): 156 % of control and 159 % of control

CCCCn1c(C)nc2c(cnn2C)c1=O
T/C [6]: 114 % of control | T/C [7]: 101 % of control | T/C [8]: 108 % of control

CCOc1cc2c(cc1C/C=C/c1ccccc1)OCO2
T/C [9]: 100 % of control | T/C [10]: 110 % of control | T/C [11]: 101 % of control

CSCCC(NC=O)C(=O)NC(CC(C)C)C(=O)NC(Cc1ccccc1)C(=O)O (centres undefined)
T/C (dose: 12.5 mg/kg/injection, schedule: Q01DX005 (ip), vehicle: distilled water + Tween-80): 98 % of control | T/C (dose: 25.0 mg/kg/injection, schedule: Q01DX005 (ip), vehicle: distilled water + Tween-80): 98 % of control | T/C (dose: 50.0 mg/kg/injection, schedule: Q01DX005 (ip), vehicle: distilled water + Tween-80): 100 % of control | T/C (dose: 100.0 mg/kg/injection, schedule: Q01DX005 (ip), vehicle: distilled water + Tween-80): 89 % of control | T/C (dose: 200.0 mg/kg/injection, schedule: Q01DX005 (ip), vehicle: distilled water + Tween-80): 97 % of control

COC(=O)/C(C#N)=C/c1cc(OC)c(O)cc1Br
T/C (dose: 25.0 mg/kg/injection, schedule: Q01DX005 (ip), vehicle: Klucel (hydroxypropylcellulose) (HPC)): 104 % of control | T/C [6]: 104 % of control and 88 % of control | T/C [7]: 105 % of control | T/C [8]: 100 % of control

Clc1c(Cl)c(Cl)c(SC2C3CC4C(C3)C42)c(Cl)c1Cl (centres undefined)
T/C [12]: 103 % of control | T/C [13]: 108 % of control | T/C (dose: 200.0 mg/kg/injection, schedule: Q01DX009 (ip), vehicle: saline): 101 % of control

C=C(C)c1c2c(SC)ccc(SC)c2cc2c(SC)ccc(SC)c12
T/C [5]: 96 % of control | T/C (dose: 200.0 mg/kg/injection, schedule: Q01DX001 (ip), vehicle: saline with Tween-80): 98 % of control | T/C [14]: 95 % of control

CC(/C=C/c1ccccc1)=N\O
T/C [6]: 97 % of control | T/C [7]: 99 % of control | T/C [8]: 97 % of control

S=c1nc(N(c2ccccc2)c2ccccc2)[nH]s1
T/C [15]: 104 % of control | T/C [16]: 101 % of control | T/C [1]: 93 % of control

CCOC(=O)C(Cc1c[nH]c2ccccc12)NC(=O)C1(O)C(O)C2(CC)C=CCN3CCC4(c5cc(C6(C(=O)OC)CC7CC(CC)CN(CCc8c6[nH]c6ccccc86)C7)c(OC)cc5N(C)C14)C32 (centres undefined)
T/C (dose: 2.0 mg/kg/injection, schedule: Q01DX001 (ip), vehicle: saline): 99 % of control | T/C (dose: 4.0 mg/kg/injection, schedule: Q01DX001 (ip), vehicle: saline): 118 % of control | T/C (dose: 16.0 mg/kg/injection, schedule: Q01DX001 (ip), vehicle: saline): 169 % of control | T/C (dose: 32.0 mg/kg/injection, schedule: Q01DX001 (ip), vehicle: saline): 179 % of control | T/C (dose: 64.0 mg/kg/injection, schedule: Q01DX001 (ip), vehicle: saline): 178 % of control

CC1CCC(C(C)C)C(N)C1 (centres undefined)
T/C (dose: 25.0 mg/kg/injection, schedule: Q04DX002 (ip), vehicle: suspension in saline): 100 % of control | T/C (dose: 50.0 mg/kg/injection, schedule: Q04DX002 (ip), vehicle: suspension in saline): 93 % of control | T/C (dose: 100.0 mg/kg/injection, schedule: Q04DX002 (ip), vehicle: saline with Tween-80): 89 % of control | T/C (dose: 100.0 mg/kg/injection, schedule: Q04DX002 (ip), vehicle: suspension in saline): 102 % of control

CN1c2ccccc2S(=O)(=O)n2c(-c3ccccc3Cl)nnc21
T/C (dose: 25.0 mg/kg/injection, schedule: Q01DX001 (ip), vehicle: saline with Tween-80): 97 % of control | T/C [4]: 96 % of control | T/C [5]: 100 % of control and 95 % of control | T/C [14]: 90 % of control

COc1ccccc1NC(=O)Oc1ccc(C(C)(CCC(=O)O)c2ccc(OC(=O)Nc3ccccc3OC)cc2)cc1
T/C (dose: 25.0 mg/kg/injection, schedule: Q01DX005 (ip), vehicle: saline with Tween-80): 103 % of control | T/C [9]: 101 % of control and 104 % of control and 97 % of control | T/C [10]: 102 % of control and 105 % of control and 94 % of control | T/C [11]: 90 % of control and 97 % of control | T/C (dose: 400.0 mg/kg/injection, schedule: Q01DX005 (ip), vehicle: saline with Tween-80): 102 % of control

CCOc1c(N=Nc2ccc([N+](=O)[O-])cc2)c(C)nn1C(N)=S
T/C [17]: 93 % of control | T/C [18]: 95 % of control | T/C [19]: 98 % of control

CCS/C(C#N)=C/c1ccccc1
T/C [1]: 109 % of control | T/C [2]: 115 % of control

COC(=O)C1(C(=O)OC)N=C(C)OO1
T/C (dose: 6.25 mg/kg/injection, schedule: Q01DX009 (ip), vehicle: saline): 99 % of control and 97 % of control | T/C (dose: 12.5 mg/kg/injection, schedule: Q01DX009 (ip), vehicle: saline): 101 % of control and 107 % of control | T/C (dose: 25.0 mg/kg/injection, schedule: Q01DX009 (ip), vehicle: saline): 91 % of control and 97 % of control | T/C [12]: 96 % of control and 97 % of control | T/C [13]: 101 % of control

O=C(NC(c1ccccc1)c1cccs1)c1cccs1 (centres undefined)
T/C [6]: 99 % of control | T/C [7]: 99 % of control | T/C [8]: 103 % of control

COc1ccc(CN2COc3c(cc(Cl)c4cccnc34)C2)cc1
T/C (dose: 100.0 mg/kg/injection, schedule: Q04DX003 (ip), vehicle: Klucel (hydroxypropylcellulose) (HPC)): 96 % of control | T/C (dose: 200.0 mg/kg/injection, schedule: Q04DX003 (ip), vehicle: Klucel (hydroxypropylcellulose) (HPC)): 104 % of control | T/C (dose: 400.0 mg/kg/injection, schedule: Q04DX003 (ip), vehicle: Klucel (hydroxypropylcellulose) (HPC)): 95 % of control

c1ccc2c(c1)C1=NCCN1c1ccccc1-2
T/C (dose: 12.0 mg/kg/injection, schedule: Q01DX009 (ip), vehicle: saline with Tween-80): 109 % of control | T/C (dose: 12.0 mg/kg/injection, schedule: Q01DX009 (ip), vehicle: saline): 88 % of control | T/C (dose: 18.0 mg/kg/injection, schedule: Q01DX009 (ip), vehicle: saline with Tween-80): 113 % of control | T/C (dose: 18.0 mg/kg/injection, schedule: Q01DX009 (ip), vehicle: saline): 105 % of control | T/C (dose: 27.0 mg/kg/injection, schedule: Q01DX009 (ip), vehicle: saline with Tween-80): 118 % of control | T/C (dose: 27.0 mg/kg/injection, schedule: Q01DX009 (ip), vehicle: saline): 111 % of control | T/C (dose: 40.0 mg/kg/injection, schedule: Q01DX009 (ip), vehicle: saline with Tween-80): 122 % of control

O=C1Sc2ccccc2Cn2cccc21
T/C (dose: 60.0 mg/kg/injection, schedule: Q01DX005 (ip), vehicle: saline with Tween-80): 108 % of control | T/C (dose: 120.0 mg/kg/injection, schedule: Q01DX005 (ip), vehicle: saline with Tween-80): 108 % of control | T/C (dose: 240.0 mg/kg/injection, schedule: Q01DX005 (ip), vehicle: saline with Tween-80): 123 % of control

CCOC(=O)/C=C(/C)Nc1ccc2c(c1)OCO2
T/C [6]: 103 % of control | T/C [7]: 110 % of control | T/C [8]: 111 % of control

CCC(C)C(=O)Nc1ccccc1-c1ccccc1 (centres undefined)
T/C [15]: 99 % of control | T/C [16]: 100 % of control | T/C [1]: 103 % of control | T/C [12]: 91 % of control

Nc1ncnc2ccc(Cl)cc12
T/C [1]: 105 % of control | T/C [2]: 100 % of control | T/C [3]: 107 % of control

CN(/N=C/c1ccc2c(c1)OCO2)C(=O)c1ccccc1N
T/C [1]: 108 % of control | T/C [2]: 114 % of control | T/C [3]: 116 % of control

CCCN(CCC)C(=O)c1ccc([N+](=O)[O-])cc1
T/C [16]: 106 % of control | T/C [1]: 113 % of control | T/C [2]: 100 % of control and 104 % of control | T/C [3]: 106 % of control

Clc1ccc(C(CCOc2ccccc2Br)Cn2ccnc2)c(Cl)c1 (centres undefined)
T/C [15]: 89 % of control | T/C [16]: 90 % of control | T/C [1]: 101 % of control and 94 % of control

Cc1ccc(Cl)cc1NC(=O)N(C)CCO
T/C [17]: 103 % of control | T/C [18]: 103 % of control | T/C [19]: 94 % of control
